{"source": "patent US20250137054A1", "about": "“COMPOSITION AND METHOD FOR EVALUATING RESPONSIVENESS OF EDARAVONE” (MITSUBISHI TANABE PHARMA CORPORATION, priority 2022, published 2025)", "test_system": "TDP-43 in healthy individual-derived neurons", "assay": "TDP-43 localization evaluation, healthy individual-derived neurons", "assay_type": "cell-based, human", "details": "edaravone treatment, DMSO group = 100 (FIG. 15)", "excerpt": "Human induced pluripotent stem (iPS) cells were induced from cells derived from an ALS patient and cells derived from a healthy individual using a conventional method. The cells derived from the ALS patient were used that are known to have an ALS risk mutation as a heterozygous mutation in the TARDBP gene. Each iPS cell was differentiated into a motor neuron (hereinafter, also simply referred to as a “neuron”) using a conventional method. […]\nIntracellular localization of TDP-43 polypeptides was evaluated by immunofluorescence staining of neurons. […] After further nuclear staining, washing with PBS, and imaging under a fluorescence microscope were performed. The captured images were analyzed using Matlab (Mathworks), and fluorescence intensities of TDP-43 in a nuclear region and in a cytoplasmic region were respectively calculated. […]\nRegarding the intracellular localization of TDP-43 polypeptides, the nuclear and cytoplasmic TDP-43 fluorescence intensities and the cytoplasmic/nuclear TDP-43 intensity ratios in ALS cells and healthy cells are shown in FIG. 15. […]"}
{"smiles": "CC1=NN(c2ccccc2)C(=O)C1", "note": "[edaravone, 5-methyl-2-phenyl-2,4-dihydro-3H-pyrazol-3-one]", "values": [{"measurement": "effect of decreasing the cytoplasmic/nuclear TDP-43 intensity ratio", "value": "not observed"}]}
